Calls of active or inactive are those of the source. The rule behind the calls is not given here.
The compounds below were run against Metabotropic glutamate receptor 4 (Homo sapiens) (UniProt Q14833) (assay: mGlu4 positive allosteric modulator potency, dose response, selectivity assay for mGlu7/mGlu8 PAM project, CHO Gqi5 cells, Fluo-4 calcium (AID 743423)). Details: Fluo-4 calcium fluorescence.
Chain of Metabotropic glutamate receptor 4 (Homo sapiens) (Q14833 whole entry, looked up): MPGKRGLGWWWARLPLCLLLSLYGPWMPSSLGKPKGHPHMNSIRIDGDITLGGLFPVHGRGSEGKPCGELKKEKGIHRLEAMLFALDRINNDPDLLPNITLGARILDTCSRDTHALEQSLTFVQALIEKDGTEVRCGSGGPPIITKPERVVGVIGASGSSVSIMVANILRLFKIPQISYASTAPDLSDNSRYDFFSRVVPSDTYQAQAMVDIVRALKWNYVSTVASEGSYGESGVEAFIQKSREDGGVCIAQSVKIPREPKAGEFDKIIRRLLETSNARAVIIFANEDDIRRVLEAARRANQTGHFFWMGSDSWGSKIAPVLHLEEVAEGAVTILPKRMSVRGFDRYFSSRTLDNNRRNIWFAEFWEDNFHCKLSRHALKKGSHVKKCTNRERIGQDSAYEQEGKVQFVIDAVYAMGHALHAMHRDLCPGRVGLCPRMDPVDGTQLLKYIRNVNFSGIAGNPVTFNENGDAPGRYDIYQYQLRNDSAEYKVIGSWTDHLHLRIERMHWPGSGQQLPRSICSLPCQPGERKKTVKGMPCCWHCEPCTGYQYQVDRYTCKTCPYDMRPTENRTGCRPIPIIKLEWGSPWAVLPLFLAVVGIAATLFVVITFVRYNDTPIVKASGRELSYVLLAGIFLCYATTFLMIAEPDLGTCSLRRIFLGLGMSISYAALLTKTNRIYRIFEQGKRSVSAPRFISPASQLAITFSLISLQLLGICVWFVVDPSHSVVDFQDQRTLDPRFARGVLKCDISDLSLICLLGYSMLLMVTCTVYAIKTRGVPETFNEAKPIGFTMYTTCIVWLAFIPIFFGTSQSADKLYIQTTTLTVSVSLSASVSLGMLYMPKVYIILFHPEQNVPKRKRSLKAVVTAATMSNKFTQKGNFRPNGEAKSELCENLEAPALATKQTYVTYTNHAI

Row | EC50 [µM] | Structure (SMILES)
1 | 10 | COc1ccc(SCC(=O)c2cc(C)n(-c3ccc(OC(F)F)cc3)c2C)cc1
2 | 10 | CC(=O)Nc1ccc(SCC(=O)c2cc(C)n(-c3ccc(S(N)(=O)=O)cc3)c2C)cc1
3 | 10 | COC(=O)c1ccc(-n2c(C)cc(C(=O)CSc3ccc(N(C)C(C)=O)cc3)c2C)cc1
4 | 2.6 | CC(=O)Nc1ccc(SCC(=O)c2cc(C)n(CCc3cccs3)c2C)cc1
5 | 10 | CC(=O)Nc1ccc(OCC(=O)c2cc(C)n(-c3ccc(OC(F)F)cc3)c2C)cc1
6 | 10 | COC(=O)c1ccc(-n2c(C)cc(C(=O)CSCc3cccc(C)c3)c2C)cc1
7 | 10 | CCOc1ccc(-n2c(C)cc(C(=O)CSc3ccc(OC)cc3)c2C)cc1
8 | 10 | COC(=O)c1ccc(-n2c(C)cc(C(=O)COc3ccc(NC(C)=O)cc3)c2C)cc1
9 | 10 | CC(=O)Nc1ccc(SCC(=O)c2cc(C)n(-c3nc(C)cs3)c2C)cc1
10 | 2.2 | CC(=O)Nc1ccc(SCC(=O)c2cc(C)n(CC3COc4ccccc4O3)c2C)cc1 (stereo not drawn)
11 | 10 | CCn1c(C)cc(C(=O)CSc2ccc(NC(C)=O)cc2)c1C
12 | 10 | COC(=O)c1ccc(-n2c(C)cc(C(=O)COc3ccc(OC(C)=O)cc3)c2C)cc1
13 | 1 | COC(=O)c1ccc(-n2c(C)cc(C(=O)CSCc3ccc(OC)cc3)c2C)cc1
14 | 3.43 | COC(=O)c1ccc(-n2c(C)cc(C(=O)CSc3ccc(NC(C)=O)cc3)c2C)cc1
15 | 3.3 | CC(=O)Nc1ccc(SCC(=O)c2cc(C)n(-c3cccc(F)c3)c2C)cc1
16 | 10 | CCOc1ccc(-n2c(C)cc(C(=O)CSCc3ccc(OC)cc3)c2C)cc1
17 | 10 | CC(=O)Nc1ccc(SCC(=O)c2cc(C)n(CC3CCCO3)c2C)cc1 (stereo not drawn)

Same assay, conditions: Fluo-4 calcium fluorescence, at 30 µM (top of the series)

Row | % glutamate max response | Structure (SMILES)
18 | 22.3 | CC(=O)Nc1ccc(SCC(=O)c2cc(C)n(-c3ccccc3F)c2C)cc1
19 | inactive | COC(=O)c1ccc(-n2c(C)cc(C(=O)CNc3ccc(C(=O)O)cc3)c2C)cc1
20 | inactive | COc1ccc(CSCC(=O)c2cc(C)n(-c3ccc(OC(F)F)cc3)c2C)cc1
21 | inactive | COC(=O)c1ccc(-n2c(C)cc(C(=O)COc3cccc(N(C)C)c3)c2C)cc1
22 | inactive | Cc1ccc(CSCC(=O)c2cc(C)n(-c3ccc(OC(F)F)cc3)c2C)cc1
23 | inactive | CCOc1ccc(-n2c(C)cc(C(=O)CSCc3cccc(C)c3)c2C)cc1

Source: PubChem BioAssay AID743423 (Vanderbilt Specialized Chemistry Center, 2014)
